Data from EP0072352B1, “Benzazepin-2-ones, process for their preparation, pharmaceutical preparations containing these compounds and the compounds for therapeutical use” (CIBA-GEIGY AG, priority 1981, dated 1983).

Test system: durch Angiotensin I (AI) hervorgerufene Blutdrucksteigerung
Assay: Inhibition of the angiotensin I (AI) induced blood pressure rise after intravenous administration of the test compound
Assay type: in vivo, Ratten
Details: for % AI Hemmung: rat, mean inhibition within 30 min after administration
Source text: Die Verbindungen der Erfindung zeigen nach intravenöser oder oraler Verabreichung eine hemmende Wirkung gegen die durch Angiotensin I hervorgerufene Blutdrucksteigerung auch an normotensiven Ratten. Das Angiotensin 1 wird durch das genannte Umwandlungsenzym zu der stark blutdrucksteigernden Substanz Angiotensin II hydrolysiert. Die Hemmung des genannten Enzyms blockiert die Bildung von Angiotensin II aus Angiotensin I. In dieser Weise wird die durch Angiotensin I provozierte Blutdrucksteigerung abgeschwächt.
Der entsprechende in-vivo-Test mit den intravenös verabreichten Verbindungen wird mit männlichen normotensiven Ratten, welche mit dem Natriumsalz der 5-Äthyl-5-(1-methylpropyl)-2-thiobarbitursäure narkotisiert sind, durchgeführt. Eine femorale Arterie und eine Wadenvene werden mit je einer Hohlnadel für die direkte Messung des Blutdrucks und für die intravenöse Verabreichung des Angiotensins I und einer erfindungsgemäßen Verbindung versehen. Nach der Stabilisierung des basalen Blutdrucks wird die Druckänderung nach drei, in 5-minütigen Intervallen, i. v. durchgeführten Reizungen mit 333 ng/kg Angiotensin I bestimmt. Solche Druckänderungen werden wieder nach 5,10,15, 30 und 60 Minuten nach intravenöser Verabreichung der zu prüfenden Verbindung bestimmt. Die letztgenannten Druckänderungen werden mit den Anfangswerten verglichen. Jede festgestellte Abnahme vom Ansprechen des Blutdrucks ist ein Hinweis auf die Hemmung des Enzyms, welches das Angiotensin I umwandelt. Als Illustration der Erfindung sei auf das « höher schmelzende » 1-Carboxymethyl-3-(1-äthoxycarbonyl-3-phenylpropylamino)-2,3,4,5-tetrahydro-1H-[1] benzazepin-2-on des Beispiels 1 und auf das entsprechende S,S-Enantiomere des Beispiels 12 hingewiesen. Diese hemmen vollständig die Blutdrucksteigerung nach Angiotensin I-Reizung während 30 Minuten nach intravenöser Verabreichung einer Dosis von 1 mg/kg pro Substanz.
In der in vivo Prüfungsmethode wird zuerst durch Verabreichung des Angiotensins I (AI) an das Versuchstier eine Blutdrucksteigerung hervorgerufen. Es wird dann die Hemmung der einzelnen Verbindungen auf diese Blutdrucksteigerung gemessen.
11. Methode der Hemmung der durch Angiotensin I (AI) hervorgerufenen Blutdrucksteigerung, durch intravenöse Verabreichung der Testverbindung (% AI-Hemmung)
In diesen Untersuchungen wird wie oben beschrieben, je ein Katheter in eine femurale Arterie und in eine Wadenvene der Ratte eingeführt.
Der arterielle Druck wurde von dem Arterienkatheter aus registriert, während man Angiotensin I (AI) und die einzelnen Testverbindungen durch den Venenkatheter injiziert hatte. Die Hemmung der durch Angiotensin I verursachten Blutdrucksteigerung ist als prozentuelle Abnahme des vor der Behandlung erhaltenen Kontrollwertes der Blutdrucksteigerung ausgedrückt und in der Tabelle als Durchschnittswert der Hemmung innerhalb 30 Minuten nach Verabreichung der Testsubstanz angegeben. (Siehe Tabelle Seite 41 f.)

SMILES	% AI Hemmung (i.v. Dosis 0.007 mg/kg)	% AI Hemmung (i.v. Dosis 0.01 mg/kg)	% AI Hemmung (i.v. Dosis 0.02 mg/kg)	% AI Hemmung (i.v. Dosis 0.03 mg/kg)	% AI Hemmung (i.v. Dosis 0.06 mg/kg)	% AI Hemmung (i.v. Dosis 0.1 mg/kg)	Hemmung der Blutdrucksteigerung nach Angiotensin I-Reizung (1 mg/kg i.v., anaesthetised male normotensive rats, during 30 min after administration, 333 ng/kg angiotensin I)	% AI Hemmung (i.v. Dosis 1.0 mg/kg)	% AI Hemmung (i.v. Dosis 10 mg/kg)
O=C(O)CN1C(=O)[C@@H](N[C@@H](CCc2ccccc2)C(=O)O)CCc2ccccc21 [Beispiel 19, 1-Carboxymethyl-3S-(1S-carboxy-3-phenylpropylamino)-2,3,4,5-tetrahydro-1H-[1] benzazepin-2-on]	14%	28%	69%	70%	84%	93%	–	–	–
CCOC(=O)[C@H](CCc1ccccc1)N[C@H]1CCc2ccccc2N(CC(=O)O)C1=O (racemic) [Beispiel 1, 1-Carboxymethyl-3-(1-äthoxycarbonyl-3-phenylpropylamino)-2,3,4,5-tetrahydro-1H-[1] benzazepin-2-on]	–	–	–	–	–	50%	vollständig	100%	100%
